According to ChEMBL document CHEMBL1154822, “Synthesis and antiproliferative activity of 7-azaindirubin-3'-oxime, a 7-aza isostere of the natural indirubin pharmacophore” (J Nat Prod, 2009):

Experiments:
NCI-H460 = assay: Cytotoxicity against human NCI-H460 cells assessed as cell growth at 10 uM after 48 hrs by MTT assay; type: functional; conditions: NCI-H460, 48 h, read-out: Activity
OVCAR-4 = assay: Cytotoxicity against human OVCAR4 cells assessed as cell growth at 10 uM after 48 hrs by MTT assay; type: functional; conditions: OVCAR-4, 48 h, read-out: Activity
[1] = target: T1, Cyclin-dependent kinase 1/cyclin B1 (Homo sapiens) (UniProt P06493+P14635); assay: Inhibition of human CDK1/Cyclin B assessed as residual enzyme activity at 3 uM after 40 mins by scintillation counting; type: protein-complex assay
T1 sequence (P06493 whole entry, looked up): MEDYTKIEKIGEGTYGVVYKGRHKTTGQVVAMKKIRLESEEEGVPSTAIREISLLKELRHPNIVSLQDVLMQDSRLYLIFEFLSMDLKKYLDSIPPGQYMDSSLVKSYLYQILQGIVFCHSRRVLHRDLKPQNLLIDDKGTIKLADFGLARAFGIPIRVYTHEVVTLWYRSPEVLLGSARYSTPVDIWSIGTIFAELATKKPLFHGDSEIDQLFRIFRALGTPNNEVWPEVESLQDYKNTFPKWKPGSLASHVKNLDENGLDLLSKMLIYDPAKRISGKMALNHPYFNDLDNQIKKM
T1 sequence (P14635 whole entry, looked up): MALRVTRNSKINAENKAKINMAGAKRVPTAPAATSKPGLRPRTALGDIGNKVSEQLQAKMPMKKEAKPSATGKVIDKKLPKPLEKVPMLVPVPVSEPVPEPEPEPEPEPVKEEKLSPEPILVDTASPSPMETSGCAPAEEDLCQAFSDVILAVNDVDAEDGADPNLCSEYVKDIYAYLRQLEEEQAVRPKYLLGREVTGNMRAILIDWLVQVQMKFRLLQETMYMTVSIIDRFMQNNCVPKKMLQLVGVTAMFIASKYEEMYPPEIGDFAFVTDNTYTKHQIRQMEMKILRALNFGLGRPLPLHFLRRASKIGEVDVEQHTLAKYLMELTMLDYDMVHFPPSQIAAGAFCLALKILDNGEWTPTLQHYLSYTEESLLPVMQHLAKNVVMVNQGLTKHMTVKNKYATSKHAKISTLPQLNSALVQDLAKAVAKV

NCI-H322M = assay: Cytotoxicity against human NCI-H322M cells assessed as cell growth at 10 uM after 48 hrs by MTT assay; type: functional; conditions: read-out: Activity
SK-MEL-2 = assay: Cytotoxicity against human SK-MEL-2 cells assessed as cell growth at 10 uM after 48 hrs by MTT assay; type: functional; conditions: SK-MEL-2, 48 h, read-out: Activity
TK-10 = assay: Cytotoxicity against human TK10 cells assessed as cell growth at 10 uM after 48 hrs by MTT assay; type: functional; conditions: TK-10, 48 h, read-out: Activity
LOX IMVI = assay: Cytotoxicity against human LOXIMVI cells assessed as cell growth at 10 uM after 48 hrs by MTT assay; type: functional; conditions: read-out: Activity
[2] = target: Glycogen synthase kinase-3 beta (Homo sapiens) (UniProt P49841); assay: Inhibition of human GSK3-beta assessed as residual enzyme activity at 0.01 uM after 40 mins by scintillation counting
Glycogen synthase kinase-3 beta (Homo sapiens), sequence (P49841 whole entry, looked up): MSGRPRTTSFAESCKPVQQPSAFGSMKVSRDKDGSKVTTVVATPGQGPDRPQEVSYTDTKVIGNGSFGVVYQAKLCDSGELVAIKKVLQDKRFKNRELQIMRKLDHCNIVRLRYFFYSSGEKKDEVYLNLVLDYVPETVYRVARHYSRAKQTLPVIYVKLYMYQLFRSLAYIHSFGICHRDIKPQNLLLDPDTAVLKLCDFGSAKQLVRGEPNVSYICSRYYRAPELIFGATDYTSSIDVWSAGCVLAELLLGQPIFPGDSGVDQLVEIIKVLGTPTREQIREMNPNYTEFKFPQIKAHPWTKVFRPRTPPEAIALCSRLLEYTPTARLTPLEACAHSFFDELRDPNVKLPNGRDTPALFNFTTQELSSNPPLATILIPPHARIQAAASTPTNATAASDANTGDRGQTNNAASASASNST

[3] = target: Cyclin-dependent kinase 2/cyclin A (Homo sapiens) (UniProt P24941+P20248+P78396); assay: Inhibition of human CDK2/Cyclin A assessed as residual enzyme activity at 0.3 uM after 40 mins by scintillation counting; type: protein-complex assay
EKVX = assay: Cytotoxicity against human EKVX cells assessed as cell growth at 10 uM after 48 hrs by MTT assay; type: functional; conditions: read-out: Activity
HCT-116 = assay: Cytotoxicity against human HCT116 cells assessed as cell growth at 10 uM after 48 hrs by MTT assay; type: functional; conditions: HCT-116, 48 h, read-out: Activity
MDA-MB-468 = assay: Cytotoxicity against human MDA-MB-468 cells assessed as cell growth at 10 uM after 48 hrs by MTT assay; type: functional; conditions: MDA-MB-468, 48 h, read-out: Activity
UACC-62 = assay: Cytotoxicity against human UACC62 cells assessed as cell growth at 10 uM after 48 hrs by MTT assay; type: functional; conditions: UACC-62, 48 h, read-out: Activity
HOP-92 = assay: Cytotoxicity against human HOP92 cells assessed as cell growth at 10 uM after 48 hrs by MTT assay; type: functional; conditions: HOP-92, 48 h, read-out: Activity
SW-620 = assay: Cytotoxicity against human SW620 cells assessed as cell growth at 10 uM after 48 hrs by MTT assay; type: functional; conditions: SW-620, 48 h, read-out: Activity
IGROV-1 = assay: Cytotoxicity against human IGROV1 cells assessed as cell growth at 10 uM after 48 hrs by MTT assay; type: functional; conditions: IGROV-1, 48 h, read-out: Activity
[4] = target: Cyclin-dependent kinase 5/CDK5 activator 1 (Homo sapiens) (UniProt Q00535+Q15078); assay: Inhibition of human CDK5/p35 assessed as residual enzyme activity at 3 uM after 40 mins by scintillation counting; type: protein-complex assay
ACHN = assay: Cytotoxicity against human ACHN cells assessed as cell growth at 10 uM after 48 hrs by MTT assay; type: functional; conditions: read-out: Activity
COLO 205 = assay: Cytotoxicity against human COLO205 cells assessed as cell growth at 10 uM after 48 hrs by MTT assay; type: functional; conditions: COLO 205, 48 h, read-out: Activity
OVCAR-3 = assay: Cytotoxicity against human OVCAR-3 cells assessed as cell growth at 10 uM after 48 hrs by MTT assay; type: functional; conditions: OVCAR-3, 48 h, read-out: Activity
SF-268 = assay: Cytotoxicity against human SF268 cells assessed as cell growth at 10 uM after 48 hrs by MTT assay; type: functional; conditions: SF-268, 48 h, read-out: Activity
[5] = target: T1, Cyclin-dependent kinase 1/cyclin B1 (Homo sapiens); assay: Inhibition of human CDK1/Cyclin B assessed as residual enzyme activity at 0.3 uM after 40 mins by scintillation counting; type: protein-complex assay
NCI-H522 = assay: Cytotoxicity against human NCI-H522 cells assessed as cell growth at 10 uM after 48 hrs by MTT assay; type: functional; conditions: NCI-H522, 48 h, read-out: Activity
SF-539 = assay: Cytotoxicity against human SF539 cells assessed as cell growth at 10 uM after 48 hrs by MTT assay; type: functional; conditions: SF-539, 48 h, read-out: Activity
A549 = assay: Cytotoxicity against human A549 cells assessed as cell growth at 10 uM after 48 hrs by MTT assay; type: functional; conditions: A549, 48 h, read-out: Activity
BT-549 = assay: Cytotoxicity against human BT549 cells assessed as cell growth at 10 uM after 48 hrs by MTT assay; type: functional; conditions: BT-549, 48 h, read-out: Activity
SF-295 = assay: Cytotoxicity against human SF295 cells assessed as cell growth at 10 uM after 48 hrs by MTT assay; type: functional; conditions: SF-295, 48 h, read-out: Activity
KM12 = assay: Cytotoxicity against human KM12 cells assessed as cell growth at 10 uM after 48 hrs by MTT assay; type: functional; conditions: KM12, 48 h, read-out: Activity
OVCAR-5 = assay: Cytotoxicity against human OVCAR5 cells assessed as cell growth at 10 uM after 48 hrs by MTT assay; type: functional; conditions: OVCAR-5, 48 h, read-out: Activity
OVCAR-8 = assay: Cytotoxicity against human OVCAR8 cells assessed as cell growth at 10 uM after 48 hrs by MTT assay; type: functional; conditions: OVCAR-8, 48 h, read-out: Activity
HCT-15 = assay: Cytotoxicity against human HCT15 cells assessed as cell growth at 10 uM after 48 hrs by MTT assay; type: functional; conditions: HCT-15, 48 h, read-out: Activity
SR = assay: Cytotoxicity against human SR cells assessed as cell growth at 10 uM after 48 hrs by MTT assay; type: functional; conditions: read-out: Activity
SK-OV-3 = assay: Cytotoxicity against human SKOV3 cells assessed as cell growth at 10 uM after 48 hrs by MTT assay; type: functional; conditions: SK-OV-3, 48 h, read-out: Activity
DU-145 = assay: Cytotoxicity against human DU145 cells assessed as cell growth at 10 uM after 48 hrs by MTT assay; type: functional; conditions: DU-145, 48 h, read-out: Activity
RPMI-8226 = assay: Cytotoxicity against human RPMI8226 cells assessed as cell growth at 10 uM after 48 hrs by MTT assay; type: functional; conditions: RPMI-8226, 48 h, read-out: Activity
T47D = assay: Cytotoxicity against human T47D cells assessed as cell growth at 10 uM after 48 hrs by MTT assay; type: functional; conditions: read-out: Activity
NCI/ADR-RES = assay: Cytotoxicity against human NCI/ADR-RES cells assessed as cell growth at 10 uM after 48 hrs by MTT assay; type: functional; conditions: read-out: Activity

CN1C(=O)/C(=C2/C(=O)N(C)c3ncccc32)c2cccnc21
growth at 10 µM (NCI-H460): 121% | growth at 10 µM (OVCAR-4): 99.8% | Activity [1]: 95% | growth at 10 µM (NCI-H322M): 96.5% | growth at 10 µM (SK-MEL-2): 83.5% | growth at 10 µM (TK-10): 94.4% | growth at 10 µM (LOX IMVI): 101% | Activity [2]: 94% | Activity [3]: 114% | growth at 10 µM (EKVX): 98.4% | growth at 10 µM (HCT-116): 90.4% | growth at 10 µM (MDA-MB-468): 95.5% | growth at 10 µM (UACC-62): 103% | growth at 10 µM (HOP-92): 108% | growth at 10 µM (SW-620): 109% | growth at 10 µM (IGROV-1): 52.2% | Activity [4]: 84% | growth at 10 µM (ACHN): 94.6% | growth at 10 µM (COLO 205): 117% | growth at 10 µM (OVCAR-3): 132% | growth at 10 µM (SF-268): 103% | Activity [5]: 88% | growth at 10 µM (NCI-H522): 98% | growth at 10 µM (SF-539): 117% | growth at 10 µM (A549): 101% | growth at 10 µM (BT-549): 81.8% | growth at 10 µM (SF-295): 98.9% | growth at 10 µM (KM12): 110% | growth at 10 µM (OVCAR-5): 86.7% | growth at 10 µM (OVCAR-8): 88.8% | growth at 10 µM (HCT-15): 96% | growth at 10 µM (SR): 124% | growth at 10 µM (SK-OV-3): 111% | growth at 10 µM (DU-145): 119% | growth at 10 µM (RPMI-8226): 105% | growth at 10 µM (T47D): 109% | growth at 10 µM (NCI/ADR-RES): 85.5%

O=C1Nc2ncccc2/C1=C1/Nc2ccccc2C1=O
growth at 10 µM (NCI-H460): 47.7% | growth at 10 µM (OVCAR-4): 80.4% | Activity [1]: 65% | growth at 10 µM (NCI-H322M): 79.7% | growth at 10 µM (SK-MEL-2): 43.4% | growth at 10 µM (TK-10): 56.4% | growth at 10 µM (LOX IMVI): 76.3% | Activity [2]: 96% | Activity [3]: 99% | growth at 10 µM (EKVX): 30.6% | growth at 10 µM (HCT-116): 48.5% | growth at 10 µM (MDA-MB-468): 42.8% | growth at 10 µM (UACC-62): 79.6% | growth at 10 µM (HOP-92): 96.9% | growth at 10 µM (SW-620): 102% | growth at 10 µM (IGROV-1): -40.9% | Activity [4]: 39% | growth at 10 µM (ACHN): 51.5% | growth at 10 µM (COLO 205): 82.8% | growth at 10 µM (OVCAR-3): 75.8% | growth at 10 µM (SF-268): 84.4% | Activity [5]: 88% | growth at 10 µM (NCI-H522): 76.3% | growth at 10 µM (SF-539): 90.9% | growth at 10 µM (A549): 82.3% | growth at 10 µM (BT-549): 70.6% | growth at 10 µM (SF-295): 102% | growth at 10 µM (KM12): 89.5% | growth at 10 µM (OVCAR-5): 77.7% | growth at 10 µM (OVCAR-8): 84.4% | growth at 10 µM (HCT-15): 77.9% | growth at 10 µM (SR): 82.5% | growth at 10 µM (SK-OV-3): 89.5% | growth at 10 µM (DU-145): 81.2% | growth at 10 µM (RPMI-8226): 75.4% | growth at 10 µM (T47D): 48.4% | growth at 10 µM (NCI/ADR-RES): 82.7%

O=C1Nc2ncccc2/C1=C1/Nc2ccccc2/C1=N\O
growth at 10 µM (NCI-H460): 52.2% | growth at 10 µM (OVCAR-4): 86.7% | Activity [1]: 69% | growth at 10 µM (NCI-H322M): 30.7% | growth at 10 µM (SK-MEL-2): 14.7% | growth at 10 µM (TK-10): 40.3% | growth at 10 µM (LOX IMVI): 44.5% | Activity [2]: 88% | Activity [3]: 100% | growth at 10 µM (EKVX): 35.5% | growth at 10 µM (HCT-116): 36.9% | growth at 10 µM (MDA-MB-468): 28.4% | growth at 10 µM (UACC-62): 56.7% | growth at 10 µM (HOP-92): 54% | growth at 10 µM (SW-620): 82.8% | growth at 10 µM (IGROV-1): -25.3% | Activity [4]: 19% | growth at 10 µM (ACHN): 22.6% | growth at 10 µM (COLO 205): 106% | growth at 10 µM (OVCAR-3): 69.3% | growth at 10 µM (SF-268): 86.2% | Activity [5]: 105% | growth at 10 µM (NCI-H522): 47.6% | growth at 10 µM (SF-539): 50.3% | growth at 10 µM (A549): 46.6% | growth at 10 µM (BT-549): 45.2% | growth at 10 µM (SF-295): 94.9% | growth at 10 µM (KM12): 15% | growth at 10 µM (OVCAR-5): 87.7% | growth at 10 µM (OVCAR-8): 79.6% | growth at 10 µM (HCT-15): 33.9% | growth at 10 µM (SR): 32.8% | growth at 10 µM (SK-OV-3): 6.5% | growth at 10 µM (DU-145): 82.2% | growth at 10 µM (RPMI-8226): 69.5% | growth at 10 µM (T47D): 49.1% | growth at 10 µM (NCI/ADR-RES): 71.8%
